# From patent US12679827B2, “Pyrimidine compounds and their pharmaceutical uses” (National Health Research Institutes, priority 2020, dated 2026)
# How the values were obtained:
# [1] = tested on: NCI-H82; assay: Small-cell-lung cancer cell proliferation inhibition assay (PrestoBlue), NCI-H82; assay type: cell-based; conditions: Homo sapiens, cMYC amplified SCLC cells, 72 hours
# Procedure: (§1) Small cell lung cancer cells NCI-H82 (ATCC HTB-175, cMYC amplified), NCI-H446 (ATCC® HTB-171, cMYC amplified), and NCI-H69 (ATCC® HTB-119, MYCN amplified) were seeded at the density of 5000-10000 cells per well in 96-well plates. After 24 hours, the cancer cells were treated with each compound at various concentrations (0-10 μM) and then incubated for another 72 hours. IC50 values were computed based on duplicated 8-point titration.
# [2] = tested on: NCI-H446; assay: Small-cell-lung cancer cell proliferation inhibition assay (PrestoBlue), NCI-H446; assay type: cell-based; conditions: Homo sapiens, cMYC amplified SCLC cells, 72 hours
# Procedure: as §1
# [3] = tested on: NCI-H69; assay: Small-cell-lung cancer cell proliferation inhibition assay (PrestoBlue), NCI-H69; assay type: cell-based; conditions: Homo sapiens, MYCN amplified SCLC cells, 72 hours
# Procedure: as §1
# [4] = target: T1, human Aurora A (amino acids 123-401) (Homo sapiens, UniProt O14965); assay: Kinase-Glo Luminescent Kinase assay, in vitro inhibition of Aurora A kinase activity; assay type: biochemical; conditions: recombinant GST-tagged Aurora A, 5.0 μM ATP, 37° C., 120 minutes
# T1 construct: human Aurora A (amino acids 123-401) was expressed in Sf9 insect cells; GST; made in house; host or cells: Sf9 insect cells
# T1 sequence (O14965 123-401): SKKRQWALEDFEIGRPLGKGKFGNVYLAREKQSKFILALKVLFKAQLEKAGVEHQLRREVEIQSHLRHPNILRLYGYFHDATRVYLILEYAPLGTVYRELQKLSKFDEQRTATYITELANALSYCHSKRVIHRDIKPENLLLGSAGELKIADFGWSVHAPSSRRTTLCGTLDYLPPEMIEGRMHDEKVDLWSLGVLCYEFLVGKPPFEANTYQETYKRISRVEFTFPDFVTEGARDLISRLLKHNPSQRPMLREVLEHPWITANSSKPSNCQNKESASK
# Procedure: Recombinant glutathione S-transferase (GST)-tagged N-terminal truncated human Aurora A (amino acids 123-401) was expressed in Sf9 insect cells and then purified by glutathione affinity chromatography to afford recombinant Aurora A. Recombinant Aurora A (150 ng) was reacted with each test compound (100 nM) in 50 μL of 50 mM Tris-HCl pH 7.4, 10 mM NaCl, 10 mM MgCl2, 0.01% bovine serum albumin, 5.0 μM ATP, 1 mM dithiothreitol, 15 μM tetra(-LRRASLG) peptide at 37° C. for 120 minutes. Then, to the reaction was added 50 μL of Kinase-Glo Plus Reagent. The resulting mixture was incubated at 25° C. for 20 minutes. A 70 μL aliquot of the mixture was transferred to a black microliter plate. Luminescence was measured using a Wallac Vector 1420 multilabel counter (PerkinElmer, USA).
IC50 [1] [nM],IC50 [2] [nM],IC50 [3] [nM],IC50 [4] [nM],SMILES
< 1000,< 1000,< 1000,,CCN1CCN(c2cc(Nc3cc(C)n(COC(=O)C(C)(C)C)n3)nc(N[C@H]3CCN(C(=O)c4ccc(Cl)cc4F)C3)n2)CC1 [Compound 75]
< 1000,< 1000,< 1000,< 100,Cc1cc(Nc2cc(N3C[C@@H](C)N(C)[C@@H](C)C3)nc(NC3CCN(C(=O)c4cccc(Cl)c4F)CC3)n2)n[nH]1 [Compound 100]
< 1000,< 1000,< 1000,< 100,Cc1cc(Nc2cc(N3C[C@H](C)NC[C@H]3C)nc(NC3CCN(C(=O)c4cccc(Cl)c4F)CC3)n2)n[nH]1 [Compound 107]
< 1000,< 1000,< 1000,< 100,Cc1cc(Nc2cc(N3CCN(C)CC3)nc(NC3CCN(C(=O)c4cccc(Cl)c4F)CC3)n2)n[nH]1 [Compound 90]
< 1000,< 1000,< 1000,< 100,Cc1cc(Nc2cc(N3CCN(C4COC4)CC3)nc(N[C@H]3CCN(C(=O)c4ccc(Cl)cc4F)C3)n2)n[nH]1 [Compound 16]
< 1000,< 1000,< 1000,< 100,Cc1cc(Nc2cc(N3CCC(N(C)C)CC3)nc(NC3CCN(C(=O)c4cccc(Cl)c4F)CC3)n2)n[nH]1 [Compound 92]
< 1000,< 1000,< 1000,< 100,COC[C@H]1CCCN1c1cc(Nc2cc(C)[nH]n2)nc(NC2CCN(C(=O)c3cccc(Cl)c3F)CC2)n1 [Compound 97]
,< 1000,< 1000,< 100,COCCN1CCN(c2cc(Nc3cc(C)[nH]n3)nc(NC3CCN(C(=O)c4cccc(Cl)c4F)CC3)n2)CC1 [Compound 101]
< 1000,< 1000,< 1000,,Cc1cc(Nc2cc(N3C[C@H](C)NC[C@H]3C)nc(N[C@H]3CCN(C(=O)c4ccc(Cl)cc4F)C3)n2)n[nH]1 [Compound 9]
< 1000,< 1000,< 1000,< 100,CCC(=O)n1nc(Nc2cc(N3CCN(CC)CC3)nc(NC3CCN(C(=O)c4cccc(Cl)c4F)CC3)n2)cc1C [Compound 123]
< 1000,< 1000,< 1000,< 100,CC(=O)N1CCN(c2cc(Nc3cc(C)[nH]n3)nc(NC3CCN(C(=O)c4cccc(Cl)c4F)CC3)n2)CC1 [Compound 93]
< 1000,< 1000,,< 100,CCN1CCN(c2cc(Nc3cc(C)[nH]n3)nc(N[C@H]3CCN(C(=O)c4c(F)cc(Cl)cc4F)C3)n2)CC1 [Compound 47]
< 1000,< 1000,< 1000,,CCC(=O)n1nc(Nc2cc(N3CCN(CC)CC3)nc(N[C@H]3CCN(C(=O)c4ccc(Cl)cc4F)C3)n2)cc1C [Compound 72]

# Further lines, the compound ahead of its results:
SMILES,IC50 [1] [nM],IC50 [2] [nM],IC50 [3] [nM],IC50 [4] [nM]
CCN1CCN(c2cc(Nc3cc(C)n(C(=O)C(C)(C)C)n3)nc(N[C@H]3CCN(C(=O)c4ccc(Cl)cc4F)C3)n2)CC1 [Compound 74],< 1000,< 1000,< 1000,
Cc1cc(Nc2cc(N3CCN(CC(F)(F)F)CC3)nc(N[C@H]3CCN(C(=O)c4ccc(Cl)cc4F)C3)n2)n[nH]1 [Compound 14],< 1000,< 1000,< 1000,< 100
Cc1cc(Nc2cc(N3C[C@@H](C)N(C)[C@@H](C)C3)nc(N[C@H]3CCN(C(=O)c4ccc(Cl)cc4F)C3)n2)n[nH]1 [Compound 15],< 1000,< 1000,< 1000,< 100
Cc1cc(Nc2cc(N3CCN(C4COC4)CC3)nc(NC3CCN(C(=O)c4cccc(Cl)c4F)CC3)n2)n[nH]1 [Compound 103],< 1000,< 1000,< 1000,< 100
COC1CN(c2cc(Nc3cc(C)[nH]n3)nc(NC3CCN(C(=O)c4cccc(Cl)c4F)CC3)n2)C1 [Compound 99],,< 1000,< 1000,< 100
CCN1CCN(c2cc(Nc3cc(C)nn3C(=O)C(C)(C)C)nc(N[C@H]3CCN(C(=O)c4ccc(Cl)cc4F)C3)n2)CC1 [Compound 73],< 1000,< 1000,< 1000,
CCN1CCN(c2cc(Nc3cc(C)n(C(=O)OC(C)(C)C)n3)nc(N[C@H]3CCN(C(=O)c4ccc(Cl)cc4F)C3)n2)CC1 [Compound 81],< 1000,< 1000,< 1000,
COC1CCN(c2cc(Nc3cc(C)[nH]n3)nc(NC3CCN(C(=O)c4cccc(Cl)c4F)CC3)n2)CC1 [Compound 105],< 1000,< 1000,< 1000,
CCN1CCN(c2cc(Nc3cc(C)n(C(=O)OCCOC)n3)nc(N[C@H]3CCN(C(=O)c4ccc(Cl)cc4F)C3)n2)CC1 [Compound 83],< 1000,< 1000,< 1000,
Cc1cc(Nc2cc(N3CCN(CC(F)(F)F)CC3)nc(NC3CCN(C(=O)c4cccc(Cl)c4F)CC3)n2)n[nH]1 [Compound 106],< 1000,< 1000,< 1000,< 100
CCN1CCN(c2cc(Nc3cc(C)nn3C(=O)OC(C)(C)C)nc(N[C@H]3CCN(C(=O)c4ccc(Cl)cc4F)C3)n2)CC1 [Compound 80],< 1000,< 1000,< 1000,
COC[C@@H]1CCCN1c1cc(Nc2cc(C)[nH]n2)nc(NC2CCN(C(=O)c3cccc(Cl)c3F)CC2)n1 [Compound 104],< 1000,,< 1000,< 100
CCN1CCN(c2cc(Nc3cc(C)nn3C(=O)OCCOC)nc(N[C@H]3CCN(C(=O)c4ccc(Cl)cc4F)C3)n2)CC1 [Compound 82],< 1000,< 1000,< 1000,
CCN1CCN(c2cc(Nc3cc(C)nn3C(=O)OCC(C)C)nc(N[C@H]3CCN(C(=O)c4ccc(Cl)cc4F)C3)n2)CC1 [Compound 78],< 1000,< 1000,< 1000,
CCN1CCN(c2cc(Nc3cc(C)n(C(=O)OCC(C)C)n3)nc(N[C@H]3CCN(C(=O)c4ccc(Cl)cc4F)C3)n2)CC1 [Compound 79],< 1000,< 1000,< 1000,
Cc1cc(Nc2cc(N3C[C@@H](C)N[C@@H](C)C3)nc(N[C@H]3CCN(C(=O)c4ccc(Cl)cc4F)C3)n2)n[nH]1 [Compound 10],< 1000,< 1000,< 1000,
Cc1cc(Nc2cc(N3C[C@@H](C)N[C@@H](C)C3)nc(NC3CCN(C(=O)c4cccc(Cl)c4F)CC3)n2)n[nH]1 [Compound 102],< 1000,< 1000,< 1000,< 100
CCN1CCN(c2cc(Nc3cc(C)[nH]n3)nc(N[C@H]3CCN(C(=O)c4cccc(Cl)c4F)C3)n2)CC1 [Compound 38],< 1000,< 1000,,< 100
Cc1cc(Nc2cc(N(C)CCN(C)C)nc(N[C@H]3CCN(C(=O)c4cccc(Cl)c4F)C3)n2)n[nH]1 [Compound 27],< 1000,< 1000,,< 100
COCCN1CCN(c2cc(Nc3cc(C)[nH]n3)nc(N[C@H]3CCN(C(=O)c4ccc(Cl)cc4F)C3)n2)CC1 [Compound 13],< 1000,,< 1000,< 100
Cc1cc(Nc2cc(N3CCN(C)CC3)nc(N[C@H]3CCN(C(=O)c4ccc(Cl)cc4F)C3)n2)n[nH]1 [Compound 36],< 1000,< 1000,,< 100
CCN1CCN(c2cc(Nc3ncc(C#N)s3)nc(N[C@H]3CCN(C(=O)c4ccc(Cl)cc4F)C3)n2)CC1 [Compound 1],< 1000,< 1000,,< 100
Cc1cc(Nc2cc(N3CC[C@@H](N(C)C)C3)nc(NC3CCN(C(=O)c4cccc(Cl)c4F)CC3)n2)n[nH]1 [Compound 94],< 1000,< 1000,< 1000,< 100
CCN1CCN(c2cc(Nc3cc(C)[nH]n3)nc(N[C@H]3CCN(C(=O)c4ccc(F)cc4F)C3)n2)CC1 [Compound 44],< 1000,< 1000,,< 100
CCN1CCN(c2cc(Nc3cc(C)[nH]n3)nc(N[C@H]3CCN(C(=O)c4ccc(Cl)c(F)c4F)C3)n2)CC1 [Compound 40],< 1000,< 1000,,< 100
CCOC(=O)n1nc(C)cc1Nc1cc(N2CCN(CC)CC2)nc(NC2CCN(C(=O)c3cccc(Cl)c3F)CC2)n1 [Compound 127],< 1000,< 1000,< 1000,
